Source: patent US7964599B2, “Therapeutic compounds” (Allergan, Inc., priority 2008, dated 2011)

Assays:
Assay type in all cases: in vivo
[1] = tested on: laser-induced hypertensive monkeys; experiment: Intraocular pressure reduction in laser-induced hypertensive monkeys; conditions: change from baseline
Method: [The source words this procedure for another organism and reports this organism under the same test.] (§1) Compounds such as those described in the above are tested in vivo to measure its ability to reduce intraocular pressure. Compound 1 is tested in normotensive dogs.

normotensive dogs = experiment: Intraocular pressure reduction in normotensive dogs; conditions: change from baseline
Method: as §1

[2] = tested on: lashes and adjacent hairs of patients; experiment: Eyelash/hair growth observed in glaucoma patients treated in one eye; conditions: glaucoma patient treated in only one eye
Text: In the course of treating patients having glaucoma, treatment may only be appropriate in one eye. […] The lash appearance on the lids of the treated eyes would have appeared quite attractive if it represented a bilateral phenomenon. As a result of its asymmetric nature, the long lashes on one side could be construed as disturbing from a cosmetic standpoint. A systemic examination was preformed as a result of the asymmetric phenomenon. It soon became apparent that this altered appearance was not an isolated finding. […] Definite differences could be identified to varying degrees in the lashes and adjacent hairs of all patients who were taking the drug on a unilateral basis for longer than 6 months.
The changes in the lashes were apparent on gross inspection in several patients once attention was focused on the issue. In those with light colored hair and lashes, the differences were only seen easily with the aid of the high magnification and lighting capabilities of the slit lamp biomicroscope. In the course of glaucoma follow-up examination, attention is generally immediately focused on the eye itself. As a result of the high power magnification needed only one eye is seen at a time and the eye is seen at a high enough power that the lashes are not in focus. […]

Compound	IOP [1]	intraocular pressure (IOP) (normotensive dogs)	lash appearance in treated eye versus non-treated eye [2]
CCCCCC(=O)c1ccc([C@H]2C(=O)C[C@@H](Cl)[C@@H]2C/C=C\CCCC(=O)OCCN2CCOCC2)cc1 [Compound 5]	decreases from baseline	decreases from baseline	–
CCCCCC(O)c1ccc([C@H]2C(=O)C[C@@H](Cl)[C@@H]2C/C=C\CCCC(=O)OCCN2CCOCC2)cc1 (stereo partly drawn) [Compound 6]	decreases from baseline	decreases from baseline	–
CCCCCC(O)c1ccc([C@H]2C(O)C[C@@H](Cl)[C@@H]2C/C=C\CCCC(=O)OCCN2CCOCC2)cc1 (stereo partly drawn) [Compound 7]	decreases from baseline	decreases from baseline	–
CCCCCC(=O)c1ccc([C@H]2C(O)C[C@@H](Cl)[C@@H]2C/C=C\CCCC(=O)OCCN2CCOCC2)cc1 (stereo partly drawn) [Compound 8]	decreases from baseline	decreases from baseline	–
CCNC(=O)CCC/C=C\C[C@@H]1[C@@H](/C=C/[C@@H](O)CCc2ccccc2)[C@H](O)C[C@@H]1O [bimatoprost]	–	–	longer, thicker, and fuller
(Z)-7-[(1R,2S,3R,5R)-5-Chloro-2-(4-hexanoyl-phenyl)-3-hydroxy-cyclopentyl]-hept-5-enoic acid [Compound 3]	decreases from baseline	decreases from baseline	–
(Z)-7-[(1R,2S,3R,5R)-5-Chloro-2-(4-hexanoyl-phenyl)-3-hydroxy-cyclopentyl]-hept-5-enoic acid methyl ester [Compound 2]	decreases from baseline	decreases from baseline	–
(Z)-7-{(1R,2S,3R,5R)-5-Chloro-3-hydroxy-2-[4-(1-hydroxy-hexyl)-phenyl]-cyclopentyl}-hept-5-enoic acid methyl ester [Compound 1]	decreases from baseline	decreases from baseline	–
